Several values for one entry are separate records, joined by “and”; a condition that tells them apart may be missing. Equal entries are not always repeated. Inconclusive results and toxic doses are left out.
Test system: P388 leukemia ip, CD2F1 mice, survival T/C
Assay: NCI In Vivo Anticancer Drug Screen. Data for tumor model P388 Leukemia (intraperitoneal) in CD2F1 (CDF1) mice
Settings: endpoint: median survival time, higher = longer survival
How it was run: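 Mice carrying the transplanted tumor received test compound or vehicle. Survival was recorded in each group, and the value is the treated-group measurement divided by that of the vehicle-treated control group.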

[1] = dose: 6.25 mg/kg/injection, schedule: Q01DX009 (ip), vehicle: saline with Tween-80
[2] = dose: 12.5 mg/kg/injection, schedule: Q01DX009 (ip), vehicle: saline with Tween-80
[3] = dose: 25.0 mg/kg/injection, schedule: Q01DX009 (ip), vehicle: saline with Tween-80
[4] = dose: 50.0 mg/kg/injection, schedule: Q01DX009 (ip), vehicle: saline with Tween-80
[5] = dose: 100.0 mg/kg/injection, schedule: Q01DX009 (ip), vehicle: saline with Tween-80
[6] = dose: 200.0 mg/kg/injection, schedule: Q01DX009 (ip), vehicle: saline with Tween-80
[7] = dose: 60.0 mg/kg/injection, schedule: Q01DX005 (ip), vehicle: saline with Tween-80
[8] = dose: 120.0 mg/kg/injection, schedule: Q01DX005 (ip), vehicle: saline with Tween-80
[9] = dose: 240.0 mg/kg/injection, schedule: Q01DX005 (ip), vehicle: saline with Tween-80
[10] = dose: 50.0 mg/kg/injection, schedule: Q01DX009 (ip), vehicle: Klucel (hydroxypropylcellulose) (HPC)
[11] = dose: 100.0 mg/kg/injection, schedule: Q01DX009 (ip), vehicle: Klucel (hydroxypropylcellulose) (HPC)
[12] = dose: 200.0 mg/kg/injection, schedule: Q01DX009 (ip), vehicle: Klucel (hydroxypropylcellulose) (HPC)
[13] = dose: 50.0 mg/kg/injection, schedule: Q01DX009 (ip), vehicle: saline
[14] = dose: 100.0 mg/kg/injection, schedule: Q01DX001 (ip), vehicle: Klucel (hydroxypropylcellulose) (HPC)

Q: `Cn1c(=O)c2[nH]c(C3CCCC3)nc2n(C)c1=O` was tested. Which T/C (dose: 3.13 mg/kg/injection, schedule: Q01DX009 (ip), vehicle: saline with Tween-80) did it give?
A: 94 % of control

Q: And the T/C [1]?
A: 103 % of control

Q: What about the T/C [2] of the same compound?
A: 103 % of control

Q: What about the T/C [3] of the same compound?
A: 92 % of control

Q: Which results are given for `O=C1CCSC(=S)N1c1cc(Cl)c(Cl)cc1Cl`?
A: T/C (dose: 50.0 mg/kg/injection, schedule: Q01DX009 (ip), vehicle: suspension in saline): 106 % of control; T/C (dose: 100.0 mg/kg/injection, schedule: Q01DX009 (ip), vehicle: suspension in saline): 108 % of control; T/C (dose: 200.0 mg/kg/injection, schedule: Q01DX009 (ip), vehicle: suspension in saline): 109 % of control

Q: How did the T/C [4] turn out when `C/C=C(\C#N)SCC` was run?
A: 103 % of control

Q: And the T/C [5]?
A: 114 % of control

Q: What about the T/C [6] of the same compound?
A: 109 % of control

Q: For `CCC[As](CCC)SCC1OC(OC(C)=O)C(OC(C)=O)C(OC(C)=O)C1OC(C)=O` (stereo unspecified), which T/C [4] is on record?
A: 117 % of control

Q: And the T/C [5]?
A: 110 % of control

Q: With `NC(=S)NNC(=O)c1cccs1` as the compound, how does the T/C [7] read?
A: 108 % of control

Q: And the T/C [8]?
A: 100 % of control

Q: What about the T/C [9] of the same compound?
A: 99 % of control

Q: For `CCOC(=O)c1cnc2c(OC)ccc(OC)c2c1Cl`, which T/C (dose: 50.0 mg/kg/injection, schedule: Q01DX005 (ip), vehicle: saline with Tween-80) is on record?
A: 97 % of control

Q: And the T/C (dose: 100.0 mg/kg/injection, schedule: Q01DX005 (ip), vehicle: saline with Tween-80)?
A: 97 % of control

Q: What about the T/C (dose: 200.0 mg/kg/injection, schedule: Q01DX005 (ip), vehicle: saline with Tween-80) of the same compound?
A: 99 % of control

Q: For `O=c1[nH]cnc2nc(Cl)[nH]c12`, which T/C (dose: 50.0 mg/kg/injection, schedule: Q01DX005 (ip), vehicle: Klucel (hydroxypropylcellulose) (HPC)) is on record?
A: 98 % of control

Q: What about the T/C (dose: 100.0 mg/kg/injection, schedule: Q01DX005 (ip), vehicle: Klucel (hydroxypropylcellulose) (HPC)) of the same compound?
A: 98 % of control

Q: What about the T/C (dose: 200.0 mg/kg/injection, schedule: Q01DX005 (ip), vehicle: Klucel (hydroxypropylcellulose) (HPC)) of the same compound?
A: 95 % of control

Q: `CN1C(=O)C(=O)N(Cc2ccco2)C1=O` was tested. Which T/C [10] did it give?
A: 97 % of control

Q: What about the T/C [11] of the same compound?
A: 100 % of control

Q: What about the T/C [12] of the same compound?
A: 101 % of control

Q: For `CCOC(=O)C(=C(SC)SC)[n+]1ccc(C)cc1`, which T/C (dose: 12.5 mg/kg/injection, schedule: Q04DX002 (ip), vehicle: saline with Tween-80) is on record?
A: 104 % of control

Q: For `S=c1[nH]c2ccccc2[nH]1`, which T/C (dose: 6.25 mg/kg/injection, schedule: Q01DX009 (ip), vehicle: saline) is on record?
A: 98 % of control

Q: And the T/C (dose: 12.5 mg/kg/injection, schedule: Q01DX009 (ip), vehicle: saline)?
A: 102 % of control

Q: What about the T/C [13] of the same compound?
A: 98 % of control

Q: Which results are given for `CCN(CC)CCn1cnc(C#N)c1N`?
A: T/C [13]: 101 % of control; T/C (dose: 100.0 mg/kg/injection, schedule: Q01DX009 (ip), vehicle: saline): 100 % of control; T/C (dose: 200.0 mg/kg/injection, schedule: Q01DX009 (ip), vehicle: saline): 108 % of control

Q: Which results are given for `c1ccc(-c2cc3c(cc4c5nncn5ncn34)o2)cc1`?
A: T/C [7]: 86 % of control; T/C [8]: 86 % of control; T/C [9]: 91 % of control and 92 % of control

Q: What does the source list for `COc1ccc(/C=C(/C#N)c2ccc(Cl)cc2)cc1`?
A: T/C [3]: 92 % of control; T/C [4]: 92 % of control; T/C [5]: 95 % of control; T/C [6]: 93 % of control

Q: Which results are given for `CC12CC3(C)CC(C)(C1)CC(C(NC(C)(C)C)C(=O)O)(C2)C3` (stereo unspecified)?
A: T/C [3]: 100 % of control; T/C [4]: 100 % of control and 105 % of control and 122 % of control; T/C [5]: 99 % of control and 110 % of control and 96 % of control; T/C [6]: 99 % of control

Q: With `CN(C)NC(=S)SCCC(=O)O` as the compound, how does the T/C [10] read?
A: 99 % of control

Q: And the T/C [11]?
A: 96 % of control

Q: And the T/C [12]?
A: 92 % of control

Q: Which results are given for `CCOC(=O)C1C(c2cc(OC)c(OC)c(OC)c2)c2cc3c(cc2OC1(C)OC)OCO3` (stereo unspecified)?
A: T/C [7]: 86 % of control; T/C [8]: 86 % of control; T/C [9]: 88 % of control

Q: With `C(=N/Nc1ccccc1)/C(=N\Nc1ccccc1)C1CCN(Cc2ccccc2)CC1` as the compound, how does the T/C (dose: 25.0 mg/kg/injection, schedule: Q01DX001 (ip), vehicle: Klucel (hydroxypropylcellulose) (HPC)) read?
A: 103 % of control

Q: And the T/C (dose: 50.0 mg/kg/injection, schedule: Q01DX001 (ip), vehicle: Klucel (hydroxypropylcellulose) (HPC))?
A: 107 % of control

Q: And the T/C [14]?
A: 100 % of control

Q: `OC(c1cc2c(Cl)cc(Cl)cc2c2cc(C(F)(F)F)ccc12)C1CCCCN1` (stereo unspecified) was tested. Which T/C [1] did it give?
A: 101 % of control

Q: What about the T/C [2] of the same compound?
A: 100 % of control

Q: What about the T/C [3] of the same compound?
A: 100 % of control

Q: For `CC(OS(C)(=O)=O)C(Br)C(Br)C(C)OS(C)(=O)=O` (stereo unspecified), which T/C [14] is on record?
A: 168 % of control

Q: And the T/C (dose: 200.0 mg/kg/injection, schedule: Q01DX001 (ip), vehicle: Klucel (hydroxypropylcellulose) (HPC))?
A: 176 % of control

Reference: PubChem BioAssay AID330 (DTP/NCI, 2004)
